# Laboratory results from PMC9459842, “Chemical Profiling and Biological Activities of Pelargonium graveolens Essential Oils at Three Different Phenological Stages” (Plants, 2022).
# Marks after values point to notes of the source that are not given here.
# Key:
# ABTS antioxidant assay = assay type: biochemical; conditions: n = 3
# Description: (§1) The antioxidant activity of PGEO was evaluated by using […] complementary methods, DPPH, FRAP, ABTS, and H2O2 assays, according to the previously published protocols. The results are expressed as the concentration of PGEO providing 50% inhibition (IC50) and calculated by plotting the inhibition degrees against the essential oil concentrations. Trolox and ascorbic acid were used as positive controls. The assays were carried out in triplicate, and the IC50 values were presented as means ± SD.
# H2O2 antioxidant assay = assay type: biochemical; conditions: n = 3
# Description: as §1
# DPPH antioxidant assay = assay type: biochemical; conditions: n = 3
# Description: as §1
# FRAP antioxidant assay = assay type: biochemical; conditions: n = 3
# Description: as §1
# [1] = test system: Escherchia coli ATCC 25922; assay: disc diffusion assay; assay type: cell-based, Escherichia coli; conditions: E. coli ATCC 25922; 50 μL of oil/well, chloramphenicol 30 µg; includes 6 mm well
# Description: (§2) The antibacterial activity was evaluated against the following six bacterial strains representing Gram-positive and Gram-negative bacteria: Escherichia coli ATCC 25922, Proteus mirabilis ATCC 25933, Salmonella Typhimurium ATCC 700408, Bacillus subtilis ATCC 6633, Staphylococcus aureus ATCC 29213, and Listeria monocytogenes ATCC 13932. The tested bacterial strains were prepared by inoculating a loopful from the frozen stock (−20 °C) in Mueller–Hinton Agar (Biokar, Beauvais, France) and incubated at 37 °C for 24 h under an aerobic environment.
# (§3) The primary screening of the antimicrobial activity of the studied samples was evaluated by the disc diffusion method according to the previously published investigation. Briefly, the culture suspension of each species was inoculated in Mueller–Hinton Agar (Biolife, Italiana, Milano-Italy). […] Chloramphenicol (30 µg) was used as a positive control for bacteria strains, while dimethylsulfoxide (DMSO) (10 µL; 5%) was used as a negative control. The plates were incubated at the following growth conditions; 37 °C for 24 h, 25 °C for 48 h, and 25 °C for 72 h for bacteria, yeast, and fungi, respectively. After incubation, the inhibitory diameters were measured in millimeters, and the results were expressed as means ± Standard Deviation of three replicates.
# [2] = test system: Bacillus subtilis ATCC 6633; assay: disc diffusion assay; assay type: cell-based; conditions: B. subtilis ATCC 6633; 50 μL of oil/well, chloramphenicol 30 µg; includes 6 mm well
# Description: as §2, §3
# [3] = test system: Salmonella Typhimurium ATCC700408; assay: disc diffusion assay; assay type: cell-based; conditions: S. Typhimurium ATCC700408; 50 μL of oil/well, chloramphenicol 30 µg; includes 6 mm well
# Description: as §2, §3
# [4] = test system: Listeria monocytogenes ATCC 13932; assay: disc diffusion assay; assay type: cell-based; conditions: L. monocytogenes ATCC 13932; 50 μL of oil/well, chloramphenicol 30 µg; includes 6 mm well
# Description: as §2, §3
# [5] = test system: Proteus mirabilis ATCC 25933; assay: disc diffusion assay; assay type: cell-based; conditions: P. mirabilis ATCC 25933; 50 μL of oil/well, chloramphenicol 30 µg; includes 6 mm well
# Description: as §2, §3
# [6] = test system: carrageenan-induced edema; set-up: method as in PMID 12587692; conditions: 32, 64, and 96 mg/kg; cited from earlier work
# diabetic animals = test system: diabetic animals; set-up: method as in PMID 28549291; conditions: daily doses 25, 50, and 100 mg/kg b.w.; cited from earlier work
# monocytes = test system: monocytes; set-up: method as in PMID 9889172; conditions: in vitro; cited from earlier work
# [7] = test system: rats treated with ethanol for the induction of gastric ulcers; set-up: method as in PMID 24466200; conditions: 50 mg/kg; cited from earlier work
# [8] = test system: inflammatory responses by lipopolysaccharide (LPS) in mice; conditions: cited from earlier work
# [9] = test system: catabolic and inflammatory pathways induced by IL-1β; set-up: method as in PMID 24455984; conditions: in vitro; cited from earlier work
# [10] = test system: alloxan-induced diabetic mice; set-up: method as in doi:10.23893/1307-2080.APS.05522; conditions: 2 and 24 h after the treatment; cited from earlier work
# COX-2 = test system: COX-2; set-up: method as in PMID 26721216; conditions: cited from earlier work
# [11] = test system: occlusion of the middle cerebral artery in male rats; conditions: intraperitoneal 100 mg/kg, cited from earlier work
compound,measurement,setting,value
"O=C1O[C@H]([C@@H](O)CO)C(O)=C1O [Ascorbic Acid, Ascorbic acid]","antioxidant activity IC50, ABTS",ABTS antioxidant assay,42.22 ± 0.05 ^a μg/mL
same,"antioxidant activity IC50, H2O2",H2O2 antioxidant assay,23.34 ± 0.03 ^a μg/mL
same,"antioxidant activity IC50, DPPH",DPPH antioxidant assay,15.13 ± 0.04 ^a μg/mL
same,"antioxidant activity IC50, FRAP",FRAP antioxidant assay,31.47 ± 1.07 ^a μg/mL
O=C(N[C@H](CO)[C@H](O)c1ccc([N+](=O)[O-])cc1)C(Cl)Cl [Chloramphenicol],inhibitory diameter,[1],22.47 ± 0.21 mm
same,inhibitory diameter,[2],15.87 ± 0.21 mm
same,inhibitory diameter,[3],13.17 ± 0.25 mm
same,inhibitory diameter,[4],29.07 ± 0.58 mm
same,inhibitory diameter,[5],21.27 ± 0.21 mm
Cc1c(C)c2c(c(C)c1O)CCC(C)(C(=O)O)O2 (stereo not shown) [Trolox],"antioxidant activity IC50, ABTS",ABTS antioxidant assay,61.48 ± 1.32 ^b μg/mL
same,"antioxidant activity IC50, DPPH",DPPH antioxidant assay,24.31 ± 0.02 ^b μg/mL
same,"antioxidant activity IC50, FRAP",FRAP antioxidant assay,48.25 ± 0.05 ^b μg/mL
C=CC(C)(CCC=C(C)C)OC(C)=O (stereo not shown) [linalyl acetate],carrageenan-induced edema,[6],remarkable reduction
CC1CCC(C(C)C)C(O)C1 (stereo not shown) [menthol],"glycosylated hemoglobin, blood glucose levels",diabetic animals,"decreased glycosylated hemoglobin, blood glucose levels"
same,"production of IL-1, PGE2, and LTB4",monocytes,inhibit the production of inflammation mediators
same,levels of IL-6 and TNF-α,[7],reduced the levels of IL-6 and TNF-α
CC1=CCC2CC1C2(C)C (stereo not drawn) [α-pinene],"synthesis of nitric oxide (NO), TNF-α, and IL-6",[8],"decrease the synthesis of nitric oxide (NO), TNF-α, and IL-6"
same,"expression of catabolic and inflammatory genes, activation of NF-κB and JNK",[9],strongly inhibits
same,fasting blood glucose levels,[10],reduce fasting blood glucose levels
same,COX-2 overexpression,COX-2,potent effect on COX-2 overexpression
same,expression of IL-1 and TNF-α,[11],decreased
same,"concentration of IL-6, NO, and malondialdehyde (MDA)","[11]; striatum, cortex, and hippocampus",decreased
